Series [1] deals with dopamine-β-hydroxylase. To be noted: in words, prior art; cited from earlier work.
Series [2] concerns dopamine-β-hydroxylase. The series can be described thus: Noradrenaline content of heart (dopamine-β-hydroxylase inhibiting effect). The series is classed as in vivo, male Wister rats. To be noted: Rattus norvegicus, ip, read-out: Amine level, heart NA (noradrenaline). Here is the method:
(§1) The dopamine-β-hydroxylase inhibiting effects of the compounds according to the invention were examined by the following tests:
(§2) The tests were performed on male Wister rats weighing 150 to 200 g. The dopamine-β-hydroxylase inhibiting effects of the compounds were evaluated by determining the change of noradrenaline, dopamine and adrenaline levels of the cerebrum, heart, spleen and adrenal gland. The serotonine and 5-hydroxy-indolyl-acetic acid levels of the cerebrum were also determined. The measurements were performed as follows:
(§3) The animals were decapitated, the cerebrum, heart, spleen and adrenal gland were removed quickly, and the organs were frozen by placing them onto a metal sheet cooled with dry ice. The frozen organs were stored for a maximum of one night at -20° C.
(§4) Determination of the noradrenaline content of heart and spleen
(§5) The organs were weighed in frozen state and then homogenized in 5.0 ml of 0.4 N perchloric acid containing 0.05% of EDTA-Na2 and 0.1% of Na2 S2 O5. The homogenized mixtures were centrifuged as described above for the treatment of adrenal gland, the supernatants were decanted, and the pH was adjusted to 8.0±0.1 with a 0.1 molar tris buffer containing 20 g/l of NaOH and 25 g/l of EDTA-Na2. 100 mg of prepared Al2 O3 (Anton et al: J. Pharm. Ther., Vol. 138, p. 360, 1962) were added to the samples, and the mixtures were shaken mechanically for 20 minutes. Thereafter the Al2 O3 were washed with 2.10 ml of distilled water, and the noradrenaline was eluted with 1.0 ml of 0.05 N perchloric acid. 0.5 ml samples of the eluate were applied for the determination of noradrenaline.
(§6) Noradrenaline was determined according to the method of Shellenberger et al (Anal. Biochem., Vol. 39, p. 356, 1971), with the following modifications of the basic procedure: 0.5 ml of 0.1 molar Na-K-phosphate buffer, containing 9 g/l of EDTA-Na2, were added to 0.5 ml of the eluate, and the catecholamines (noradrenaline in the examination of heart and spleen and noradrenaline and dopamine in the examination of the cerebrum) were oxidized with 0.1 ml of a 0.1 N iodine solution in 5% potassium iodide. […] Thereafter the samples were placed for 5 minutes in a drying oven heated to 100° C., and then the samples were cooled with ice water. The fluorescence of noradrenaline was measured with an OPTON spectrophotometer at wavelengths of 390 nm (excitation) and 490 nm (emission).
(§7) In the tests disulfiram, 2,2-dipyridyl, bis(1-methyl-4-homopiperazinyl-thiocarbonyl)-disulfide, sodium diethyldithiocarbamate and N-phenyl-N'-(2-thiazolyl)-thiourea were used as reference substances. The values indicated in Table 1 are percentages in relation to the amine levels of the controls measured in the same tests (± Standard Error). The statistical calculations were performed on a TPA/i type computer, using Student's test.

Series [3] deals with dopamine-β-hydroxylase. The series can be described thus: Noradrenaline content of spleen (dopamine-β-hydroxylase inhibiting effect). Type of series: in vivo, male Wister rats. The following applies: Rattus norvegicus, ip, read-out: Amine level, spleen NA (noradrenaline). Here is the method: as §1, §2, §3, §4, §5, §6, §7
For series [4], the system named is dopamine-β-hydroxylase. The series can be described thus: Noradrenaline, dopamine, serotonine and 5-hydroxy-indolylacetic acid contents of cerebrum (dopamine-β-hydroxylase inhibiting effect). Type of series: in vivo, male Wister rats. The following applies: Rattus norvegicus, ip. Here is the method: as §1, §2, §3, §6
Determination of the noradrenaline, dopamine, serotonine and 5-hydroxy-indolylacetic acid contents of cerebrum
The brains were homogenized in 10 parts by volume of 0.4 N perchloric acid. The homogenized mixture was stored at -20° C. overnight; thereafter it was thawed and centrifuged as described above. A sample of homogenized mixture corresponding to 0.5 g of brain was removed, the pH of the sample was adjusted to 8.0±0.1 with 0.1 molar tris-buffer of the above composition, and the sample was processed as described above for the determination of the noradrenaline content of heart and spleen, with the difference that 1.5 ml of 0.05 N perchloric acid were applied as eluting agent. 0.5 ml of the eluate were applied to determine the noradrenaline and dopamine content. The measurement was performed as described above, with the difference that samples of 0.5 ml were applied for the recording of the fluorescence of noradrenaline. The residue was placed for 50 minutes into a drying oven heated to 100° C.; thereafter the sample was cooled with ice water, and the fluorescence of dopamine was recorded at wavelengths of 325 nm (excitation) and 380 nm (emission).
In a further test series the serotonine and 5-hydroxy-indolylacetic acid contents were also determined, in addition to the determination of the noradrenaline and dopamine contents, from the same sample. In this instance the brains were homogenized in 10 ml of 75% ethanol, 0.2 ml of EDTA-Na2 and 5% of ascorbic acid were added to the homogenized mixtures, and the homogenized mixtures were maintained at -20° C. overnight. The mixtures were then centrifuged as described above, and 5.0 ml samples of the supernatant were removed. The samples were diluted with equal volumes of distilled water, and poured onto ion-exchange columns of 0.5×1.5 cm dimensions, filled with buffered Amberlite CG-30 (200 to 400 mesh). The columns were washed with 5 ml of distilled water followed with 1.0 ml of 0.2 N hydrochloric acid, and the first effluent and the aqueous wash were collected for the determination of 5-hydroxy-indolylacetic acid. Elution was continued with further 1.2 ml of 0.2 N hydrochloric acid in order to remove noradrenaline, dopamine and serotonine. Samples of 0.3 ml were used for the determinations. […]

The subject of series [5] is dopamine-β-hydroxylase. The series is described as follows: Adrenaline content of adrenal gland (dopamine-β-hydroxylase inhibiting effect). The series is classed as in vivo, male Wister rats. The following applies: Rattus norvegicus, ip, read-out: Amine level, adrenal gland AD (adrenaline). Here is the method: as §1, §2, §3
Determination of the adrenaline content of adrenal gland
The adrenal glands were freed from fat and homogenized in 3.0 ml of ice-cold 0.4 N perchloric acid. The homogenized mixtures were centrifuged for 10 minutes at 0° C. with a speed of 3200 r.p.m. on a Janetzky K-70 type centrifuge. 0.05 ml samples were taken from the supernatant, and the adrenaline level was determined directly by the method of Laverty et al (Anal. Biochem., Vol. 22, p. 269, 1968).
as §7

The next series can be described thus: in vivo. To be noted: mouse, ip.
[6] abbreviates: rats, i.p., 4 hours, ± Standard Error.
Setting [7] is: rats, i.p., 200 mg/kg, 4 hours, ± Standard Error.
[8] abbreviates: rats, i.p., 4 hours, ± Standard Error, read-out: Amine level, cerebrum DA (dopamine).
Setting [9] is: rats, i.p., 4 hours, ± Standard Error, read-out: Amine level, cerebrum NA (noradrenaline).
Where [10] appears, read: rats, i.p., 4 hours, ± Standard Error, read-out: Amine level, cerebrum SE (serotonine).
Where [11] appears, read: rats, i.p., 200 mg/kg, 4 hours, ± Standard Error, read-out: Amine level, cerebrum DA (dopamine).
Setting [12] is: rats, i.p., 200 mg/kg, 4 hours, ± Standard Error, read-out: Amine level, cerebrum NA (noradrenaline).
[13] abbreviates: rats, i.p., 200 mg/kg, 4 hours, ± Standard Error, read-out: Amine level, cerebrum SE (serotonine).
The mark [14] stands for this setting: 4 h, read-out: Amine level, cerebrum DA (dopamine).
Setting [15] is: 4 h, read-out: Amine level, cerebrum NA (noradrenaline).
Setting [16] is: 4 h, read-out: Amine level, cerebrum SE (serotonine).

Regarding `NOCc1ccccc1` [Benzyloxyamine], in the series on dopamine-β-hydroxylase [1], the dopamine-β-hydroxylase inhibiting effects entry is given as “exert dopamine-β-hydroxylase inhibiting effects” and the duration of activity entry is on record as “exert their activities for a short period”.

Turning to `COCCNC1=C(C(=S)S)CCC1` [Compound M-1, 2-(N-methoxyethyl)-amino-cyclopent-1-ene-dithiocarboxylic acid], the response vs control in vivo at 100 mg/kg in the series with dopamine-β-hydroxylase [2] (setting [6]) turned out to be 106 ± 10.3%; with dopamine-β-hydroxylase [3] (setting [6]), 77.1 ± 8.9%; in the series on dopamine-β-hydroxylase [4] (setting [8]), 107 ± 4.7%; in the series with dopamine-β-hydroxylase [4] (setting [9]), 63.4 ± 3.6%; in the series on dopamine-β-hydroxylase [4] (setting [10]) it was 116 ± 4.7%; in the series on dopamine-β-hydroxylase [5] (setting [6]), 106 ± 6.1%. For the same compound, the response vs control in vivo at 200 mg/kg in the series with dopamine-β-hydroxylase [2] (setting [7]) came out at 110 ± 7.4%; with dopamine-β-hydroxylase [3] (setting [7]) it was 110 ± 14.1%; in the series with dopamine-β-hydroxylase [4] (setting [11]), 122 ± 6.7%; in the series on dopamine-β-hydroxylase [4] (setting [12]), 64.2 ± 3.4%; in the series on dopamine-β-hydroxylase [4] (setting [13]), 107 ± 2.7%; in the series on dopamine-β-hydroxylase [4] (rats, i.p., 200 mg/kg, 4 hours, ± Standard Error, read-out: Level, cerebrum 5-HIAA (5-hydroxy-indolylacetic acid)), 141 ± 12.3%. The response vs control in vivo at 200 mg/kg in the series with dopamine-β-hydroxylase [5] (setting [7]) was found to be 91.5 ± 4.7%. The LD50 in “in vivo” was around 400 mg/kg.

Regarding `CC(C)CCNC1=C(C(=S)S)CCC1` [Compound M-3, 2-(N-isoamyl)-amino-cyclopent-1-ene-dithiocarboxylic acid], the response vs control in vivo at 100 mg/kg with dopamine-β-hydroxylase [2] (setting [6]) was 86.9 ± 5.9%; in the series on dopamine-β-hydroxylase [3] (setting [6]), 48.2 ± 9.5%; with dopamine-β-hydroxylase [4] (setting [8]) it was 103 ± 4.1%; with dopamine-β-hydroxylase [4] (setting [9]), 75.2 ± 1.7%; in the series on dopamine-β-hydroxylase [4] (setting [10]), 108 ± 5.7%; in the series with dopamine-β-hydroxylase [5] (setting [6]), 86.2 ± 4.5%. Also, the response vs control in vivo at 200 mg/kg in the series with dopamine-β-hydroxylase [2] (setting [7]) was determined as 131 ± 4.4%; in the series on dopamine-β-hydroxylase [3] (setting [7]) it was 135 ± 17%; in the series with dopamine-β-hydroxylase [4] (setting [11]) it was 114 ± 2.7%; in the series on dopamine-β-hydroxylase [4] (setting [12]), 68.8 ± 2.4%; in the series with dopamine-β-hydroxylase [4] (setting [13]) it was 98.2 ± 3.9%; in the series with dopamine-β-hydroxylase [5] (setting [7]), 73.5 ± 2.2%.

Take `S=C(Nc1ccccc1)Nc1nccs1` [Compound U-14624, N-phenyl-N'-(2-thiazolyl)-thiourea, reference compound]: the response vs control in vivo at 200 mg/kg was determined as 106% in the series on dopamine-β-hydroxylase [2] (4 h); 111% in the series with dopamine-β-hydroxylase [3] (4 h); 121% in the series on dopamine-β-hydroxylase [4] (setting [14]); 31.6% with dopamine-β-hydroxylase [4] (setting [15]); 137% in the series on dopamine-β-hydroxylase [4] (setting [16]); 175% in the series on dopamine-β-hydroxylase [4] (4 h, read-out: Level, cerebrum 5-HIAA (5-hydroxy-indolylacetic acid)). Further, in the series with dopamine-β-hydroxylase [5] (4 h), the response vs control in vivo at 200 mg/kg worked out at 72%.

In the case of `CCN(CC)C(=S)S` [DDC-Na, sodium diethyldithiocarbamate, reference compound], the response vs control in vivo at 400 mg/kg in the series with dopamine-β-hydroxylase [4] (setting [14]) was 120%; in the series on dopamine-β-hydroxylase [4] (setting [15]) it was 64.1%.

Turning to `CCN(CC)C(=S)SSC(=S)N(CC)CC` [DS, bis(diethylthiocarbamoyl)-disulfide, reference compound], the response vs control in vivo at 200 mg/kg was 98% with dopamine-β-hydroxylase [2] (4 h); 111% in the series on dopamine-β-hydroxylase [4] (setting [14]); 22.5% with dopamine-β-hydroxylase [4] (setting [15]); 122% in the series with dopamine-β-hydroxylase [4] (setting [16]); 52% in the series on dopamine-β-hydroxylase [5] (4 h). Besides, the response vs control in vivo at 400 mg/kg in the series on dopamine-β-hydroxylase [2] (4 h) worked out at 102%; with dopamine-β-hydroxylase [4] (setting [14]) it was 112%; with dopamine-β-hydroxylase [4] (setting [15]), 24.1%; with dopamine-β-hydroxylase [4] (setting [16]), 117%; with dopamine-β-hydroxylase [5] (4 h) it was 66%. Besides, the dopamine-β-hydroxylase inhibiting effects result in the series with dopamine-β-hydroxylase [1] is “strong dopamine-β-hydroxylase inhibiting effects”.

On to `CCCCc1ccc(C(=O)O)nc1` [Fusaric acid, 5-butyl-picolinic acid], for which the dopamine-β-hydroxylase inhibiting effects entry in the series on dopamine-β-hydroxylase [1] is on record as “strong dopamine-β-hydroxylase inhibiting effects”.

For the compound `NNc1nncc2ccccc12` [Hydralazine, hydralazine], in the series on dopamine-β-hydroxylase [1], the dopamine-β-hydroxylase inhibiting effects entry is reported as “possess dopamine-β-hydroxylase inhibiting effects”.

Consider `O=C(CO)c1coc(=O)c2c(O)cccc12` [Oosponol], for which the dopamine-β-hydroxylase inhibiting effects result in the series on dopamine-β-hydroxylase [1] was “strong dopamine-β-hydroxylase inhibiting effects”.

With `CC(N)Cc1ccccc1` (centres unmarked) [amphetamine], the dopamine-β-hydroxylase inhibiting effects result in the series on dopamine-β-hydroxylase [1] is reported as “possess dopamine-β-hydroxylase inhibiting effects”.

As to `NNCc1ccccc1` [benzylhydrazine], in the series on dopamine-β-hydroxylase [1], the dopamine-β-hydroxylase inhibiting effects result is given as “exert dopamine-β-hydroxylase inhibiting effects” and the duration of activity entry is recorded as “exert their activities for a short period”.

In the case of `CCN(CC)C(=S)S` [diethyl dithiocarbamate], the dopamine-β-hydroxylase inhibiting effects result in the series on dopamine-β-hydroxylase [1] is given as “strong dopamine-β-hydroxylase inhibiting effects”.

On to `Cn1cc[nH]c1=S` [methimazol], for which, in the series on dopamine-β-hydroxylase [1], the dopamine-β-hydroxylase inhibiting effects result is “possess dopamine-β-hydroxylase inhibiting effects”.

Usually LD50 stands for the dose expected to kill half of the subjects tested. The low end stands for a more toxic substance, the high end for a less toxic substance.

The values are drawn from patent US4199598A, “Method of treating noradrenaline dysfunction or for dopamine-β-hydroxylase inhibition” (Richter Gedeon Vegyeszeti Gyar Rt., priority 1976, dated 1980).
